According to patent US11654169B2, “Methods for protecting skin and/or promoting wound healing” (SINPHAR PHARMACEUTICAL CO., LTD., priority 2016, dated 2023):

Legend:
Assay type in all cases: cell-based
[1] = tested on: normal primary human skin fibroblastic cells; experiment: Content of collagen in cell medium (extracellular collagen) of fibroblasts (Western blot and ELISA), relative to control; conditions: 48 hours; for relative content of collagen in the medium (extracellular content of collagen): control group = 100%; for extracellular contents of collagen (collagen in cell medium) as compared to the control group (in words): treated cells vs control group
Experimental: The normal primary human skin fibroblastic cells (purchased from ATCC) were cultivated in a Fibroblast Growth Medium. The cells thus provided were used in the following experiments.
The normal primary human skin fibroblastic cells provided by [Preparation Example C] were divided into 4 groups and were respectively cultivated with the following medium for 48 hours: • 1. Group I: a Fibroblast Growth Medium; • 2.
(§1) Thereafter, the cell medium of each group was collected and concentrated. Then, the intracellular content of collagen, the content of collagen in cell medium (i.e., extracellular content of collagen) and the content of hyaluronic acid in cell medium were measured and analyzed by Western blot and enzyme-linked immunosorbent assay (ELISA).
(§2) The normal primary human skin fibroblastic cells provided by [Preparation Example C] were divided into 37 groups and were respectively cultivated with the following medium for 48 hours: • 1. Group 1: a Fibroblast Growth Medium • 2. Group 2-1 to 2-3: Fibroblast Growth Media containing the pachymic acid (PA) provided by [Preparation Example B] at a concentration of 0.01, 0.1 and 1 μM, respectively; • 3. Group 3-1 to 3-3: Fibroblast Growth Media containing the dehydropachymic acid (DPA) provided by [Preparation Example B] at a concentration of 0.01, 0.1 and 1 μM, respectively; • 4. Group 4-1 to 4-3: Fibroblast Growth Media containing the tumulosic acid (TA) provided by [Preparation Example B] at a concentration of 0.01, 0.1 and 1 μM, respectively; • 5. Group 5-1 to 5-3: Fibroblast Growth Media containing the dehydrotumulosic acid (DTA) provided by [Preparation Example B] at a concentration of 0.01, 0.1 and 1 μM, respectively; • 6. Group 6-1 to 6-3: Fibroblast Growth Media containing the polyporenic acid C (PAC) provided by [Preparation Example B] at a concentration of 0.01, 0.1 and 1 μM, respectively; • 7. Group 7-1 to 7-3: Fibroblast Growth Media containing the 3-epi-dehydrotumulosic acid (EDTA) provided by [Preparation Example B] at a concentration of 0.01, 0.1 and 1 μM, respectively; • 8. Group 8-1 to 8-3: Fibroblast Growth Media containing the dehydrotrametenolic acid (DTTA) provided by [Preparation Example B] at a concentration of 0.01, 0.1 and 1 μM, respectively; • 9. Group 9-1 to 9-3: Fibroblast Growth Media containing the trametenolic acid (TTA) provided by [Preparation Example B] at a concentration of 0.01, 0.1 and 1 μM, respectively; • 10. Group 10-1 to 10-3: Fibroblast Growth Media containing the poricoic acid A (PAA) provided by [Preparation Example B] at a concentration of 0.01, 0.1 and 1 μM, respectively; • 11. Group 11-1 to 11-3: Fibroblast Growth Media containing the dehydroeburicoic acid (DEA) provided by [Preparation Example B] at a concentration of 0.01, 0.1 and 1 μM, respectively; • 12. Group 12-1 to 12-3: Fibroblast Growth Media containing the poricoic acid B (PAB) provided by [Preparation Example B] at a concentration of 0.01, 0.1 and 1 μM, respectively; • 13. Group 13-1 to 13-3: Fibroblast Growth Media containing the eburicoic acid (EA) provided by [Preparation Example B] at a concentration of 0.01, 0.1 and 1 μM, respectively.
The content of collagen in the medium of each group (i.e., extracellular content of collagen) was provided.

[2] = tested on: normal primary human skin fibroblastic cells; experiment: Intracellular content of collagen in fibroblasts (Western blot and ELISA), relative to control; conditions: 48 hours; for relative intracellular content of collagen: control group = 100%
Experimental: (§3) The normal primary human skin fibroblastic cells (purchased from ATCC) were cultivated in a Fibroblast Growth Medium. The cells thus provided were used in the following experiments. […]
as §2
Thereafter, the cell medium of each group was collected and concentrated. Then, the intracellular content of collagen was measured and analyzed by Western blot and enzyme-linked immunosorbent assay (ELISA).

[3] = tested on: normal primary human skin fibroblastic cells; experiment: Content of hyaluronic acid in cell medium of fibroblasts (Western blot and ELISA), relative to control; conditions: 48 hours; for relative content of hyaluronic acid in the medium (extracellular content of hyaluronic acid): control group = 100%; for contents of hyaluronic acid as compared to the control group (in words): treated cells vs control group
Experimental: as §3, §1, §2
The content of hyaluronic acid in the medium of each group (i.e., extracellular content of hyaluronic acid) was provided.

SMILES | relative content of collagen in the medium (extracellular content of collagen) ([1]; 0.01 μM) [%] | relative content of collagen in the medium (extracellular content of collagen) ([1]; 0.1 μM) [%] | relative content of collagen in the medium (extracellular content of collagen) ([1]; 1 μM) [%] | extracellular contents of collagen (collagen in cell medium) as compared to the control group (in words) [1] | relative intracellular content of collagen ([2]; 0.01 μM) [%] | relative intracellular content of collagen ([2]; 0.1 μM) [%] | relative intracellular content of collagen ([2]; 1 μM) [%] | intracellular contents of collagen as compared to the control group (in words) ([2]; treated cells vs control group) | relative content of hyaluronic acid in the medium (extracellular content of hyaluronic acid) ([3]; 0.01 μM) [%] | relative content of hyaluronic acid in the medium (extracellular content of hyaluronic acid) ([3]; 0.1 μM) [%] | relative content of hyaluronic acid in the medium (extracellular content of hyaluronic acid) ([3]; 1 μM) [%] | contents of hyaluronic acid as compared to the control group (in words) [3]
C=C(CC[C@@H](C(=O)O)[C@H]1[C@H](O)C[C@@]2(C)C3=CC[C@@H](C(=C)C)[C@](C)(CCC(=O)O)C3=CC[C@]12C)C(C)C [Poricoic acid A (PAA), poricoic acid A] | 111 | 111 | 91 | significantly enhanced | 78 | 104 | 115 | significantly enhanced | 108 | 106 | 99 | significantly enhanced
C=C(C)[C@@H]1CC=C2C(=CC[C@]3(C)[C@@H]([C@@H](CCC=C(C)C)C(=O)O)[C@H](O)C[C@@]23C)[C@@]1(C)CCC(=O)O [Poricoic acid B (PAB), poricoic acid B] | 122 | 136 | 153 | significantly enhanced | 105 | 108 | 99 |  | 109 | 104 | 84 | significantly enhanced
CC(C)=CCC[C@@H](C(=O)O)[C@H]1CC[C@@]2(C)C3=C(CC[C@]12C)[C@@]1(C)CC[C@H](O)C(C)(C)[C@@H]1CC3 [Trametenolic acid (TTA), trametenolic acid] | 141 | 149 | 142 | significantly enhanced | 95 | 79 | 79 |  | 83 | 108 | 125 | significantly enhanced
C=C(CC[C@@H](C(=O)O)[C@H]1[C@H](O)C[C@@]2(C)C3=C(CC[C@]12C)[C@@]1(C)CC[C@H](O)C(C)(C)[C@@H]1CC3)C(C)C [Tumulosic acid (TA), tumulosic acid] | 140 | 136 | 141 |  | 148 | 127 | 147 |  | 100 | 123 | 124 | 
